Tests used:
[1] = In vivo PK study in C57BL/6 mice; parameters: species or system mouse
Description: C57 B6/J male mice, 8 weeks old (22–24 g), were used (Charles River, Calco). All procedures were performed in accordance with the Ethical Guidelines of European Communities Council (Directive 2010/63/EU of 22 September 2010) and accepted by the Italian Ministry of Health. All efforts were made to minimize animal suffering and to use the minimal number of animals required to produce reliable results, according to the “3Rs rules”. Animals were group-housed in ventilated cages and had free access to food and water. They were maintained under a 12 h light/dark cycle (lights on at 8:00 am) at a controlled temperature (21 ± 1 °C) and relative humidity (55 ± 10%). 32b was administrated intravenously (i.v.) at 3 mg/kg/5 mL, vehicle: PEG400/Tween 80/saline solution (10/10/80% in volume, respectively) via tail vein injection and via oral administration (p.o.) at 10 mg/kg/10 mL, vehicle: PEG400/Tween 80/saline solution (10/10/80% in volume, respectively) by an oral gavage. Sample collection. Samples were collected at 5 min, 15 min, 30 min, 1 h, 2 h, and 4 h (i.v. administration) and at 15 min, 30 min, 1 h, 2 h, 4 h, and 6 h (p.o. administration). N = 3 animals per dose time point were treated. Plasma samples were centrifuged at 21,100g for 15 min at 4 °C. An aliquot of each sample was extracted (1:3) with cold CH3CN containing 200 nM of an appropriate internal standard being a close analogue of compound 32b. A calibration curve was prepared in blank mouse plasma over a 1 nM–10 μM range. Three quality controls were prepared by spiking compound 32b in the blank mouse plasma to 20, 200, and 2000 nM as final concentrations. The calibrators and quality controls were extracted (1:3) with the same extraction solution as the plasma samples. The plasma samples, the calibrators, and quality controls were centrifuged at 3270 × g for 15 min at 4 °C. The supernatants were further diluted (1:1) with H2O and analyzed by LC/MS–MS on a Waters Acquity UPLC/MS TQD system consisting of TQD) MS equipped with an ESI interface and a PDA detector. ESI was applied in positive mode. Compound-dependent parameters such as MRM transitions and collision energy were developed for compound 32b and the internal standard. The analyses were run on an Acquity UPLC BEH C18 (50 × 2.1 mm ID, particle size 1.7 μm) with a VanGuard BEH C18 pre-column (5 × 2.1 mm ID, particle size 1.7 μm) at 40 °C. For plasma samples, the mobile phase was H2O + 0.1% HCOOH (A) and CH3CN + 0.1% HCOOH (B) at a flow rate = 0.5 mL/min. A linear gradient was applied starting at 20% B with an initial hold for 0.2 min, then 20–100% B in 2 min. All samples (plasma samples, calibrators, and quality controls) were quantified by a MRM peak area response factor in order to determine the levels of compound 32b in the plasma. The concentrations versus time were plotted and the profiles were fitted using PK Solutions Excel Application (Summit Research Service, USA) in order to determine the PK parameters.

[2] = biological target: T1, hAC (Homo sapiens, UniProt Q13510); assay: hAC LC/MS-based activity assay in SH-SY5Y cells; format: cell-based; parameters: host or cells: SH-SY5Y human neuroblastoma cells; settings: 1, 2.5, 5, 10 μM for 3 h; 10 μM for 1, 3, 6 h
T1 sequence (Q13510 22-395): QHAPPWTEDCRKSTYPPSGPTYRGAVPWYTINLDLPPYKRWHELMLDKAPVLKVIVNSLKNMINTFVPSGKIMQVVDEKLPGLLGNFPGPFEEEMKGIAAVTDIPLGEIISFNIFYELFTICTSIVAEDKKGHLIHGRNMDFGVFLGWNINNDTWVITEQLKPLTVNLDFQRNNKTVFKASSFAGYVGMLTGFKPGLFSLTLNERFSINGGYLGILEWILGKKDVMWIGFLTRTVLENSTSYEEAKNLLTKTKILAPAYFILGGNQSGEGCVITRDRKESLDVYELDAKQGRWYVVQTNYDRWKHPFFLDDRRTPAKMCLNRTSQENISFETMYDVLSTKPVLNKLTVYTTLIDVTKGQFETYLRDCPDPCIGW
Description: SH-SY5Y cells were purchased from Sigma Aldrich (Italy) and cultured in DMEM containing 10% FBS at 37 °C and 5% CO2. Drugs were dissolved in DMSO (10 mM) and diluted in cell culture medium with reduced serum (1%) for cell treatments.
hAC activity measurement was performed as previously described.[59],[61] Total lysates from cells were diluted in assay buffer (100 mM sodium phosphate, 0.1% Nonidet P-40, 150 mM NaCl, 3 mM DTT, 100 mM sodium citrate, pH 4.5). Reactions were started by the addition of 50 μM N-lauroyl ceramide (Nu-Chek Prep, Elysian, MN) and carried out for 1 h at 37 °C. Reactions were stopped by the addition of a mixture of CHCl3/MeOH (2:1) spike with 11-lauroleic acid (1.0 nmol, NuChek Prep). The organic phases were collected, dried under N2, and analyzed by UPLC/MS (Acquity, Waters) in the negative-ion mode monitoring the reaction product (lauric acid, m/z: 199) using 11-lauroleic acid as the internal standard. Lipids were eluted on an Acquity UPLC BEH C18 column (50 mm length, 2.1 mm ID, 1.7 μm pore size, Waters) column at 0.5 mL/min for 1.5 min with a gradient of CH3CN and H2O, both containing 0.25% AcOH and 5 mM NH4OAc (70–100% CH3CN in 0.5 min, 100% CH3CN for 0.5 min, 70% CH3CN for 0.4 min). The column temperature was 40 °C. […] The [M – H]^− ion was monitored in the selected-ion monitoring mode (m/z values: lauric acid 199, 11-lauroleic acid 197.35). […]

Vdss (mL/kg) ([1]; 10 mg/kg, p.o.): 32 877 mL/kg
AUC at 4 h ([1]; male, mouse, iv, 3 mg/kg, plasma): 533 ng·h/mL
clearance at 4 h ([1]; male, mouse, plasma, iv, 3 mg/kg): 72 mL/min/kg
Vd at 4 h ([1]; male, mouse, plasma, iv, 3 mg/kg, i.v., read-out: Vdss (converted)): 12.4 L/kg
AUC at 4 h ([1]; male, mouse, po, 10 mg/kg, plasma): 709 ng·h/mL
hAC activity in SH-SY5Y cells [2]: time-dependent reduction
SMILES: CCCCCNC(=O)n1cc(-c2ccc(F)cc2C2CCN(C)CC2)oc1=O [Compound 32b, 5-[4-Fluoro-2-(1-methyl-4-piperidyl)phenyl]-2-oxo-N-pentyl-oxazole-3-carboxamide]

Reference: paper PMC7770833, “Design, Synthesis, and Biological Evaluation of a Series of Oxazolone Carboxamides as a Novel Class of Acid Ceramidase Inhibitors” (Journal of Medicinal Chemistry, 2020)
